Data published in paper PMC9403976, “Elucidating the path to Plasmodium prolyl-tRNA synthetase inhibitors that overcome halofuginone resistance” (Nature Communications, 2022).
Several values for one entry are separate records, joined by “and”; a condition that tells them apart may be missing. Equal entries are not always repeated. Where two headings read alike, the source gives them in different places.

Tests used:
P. falciparum Dd2-2D4 = test: P. falciparum asexual blood stage (ABS) growth assay, SYBR Green, 72 h, wild-type parasites; assay type: cell-based, Plasmodium falciparum; conditions: Plasmodium falciparum, DD2; SI Fig 16b; values on -log scale; read-out: ABS - Dd2-2D4 (converted)
PfcProRS = target: T1, PfcProRS (Plasmodium falciparum, UniProt Q8I5R7); assay type: binding; conditions: single replicates
T1 construct: made in house; host or cells: E. coli SoluBL-21

HsProRS = HsProRS (Homo sapiens, UniProt P07814); test: TR-FRET ligand displacement assay with tracer MAT379 (CoraFluor-1-Halo and anti-His6 antibody formats); assay type: binding; design: made in house; host or cells: E. coli SoluBL-21; conditions: for TR-FRET dose-response, normalized signal (SI Fig 11): individual replicates
Chain of HsProRS (P07814 996-1512): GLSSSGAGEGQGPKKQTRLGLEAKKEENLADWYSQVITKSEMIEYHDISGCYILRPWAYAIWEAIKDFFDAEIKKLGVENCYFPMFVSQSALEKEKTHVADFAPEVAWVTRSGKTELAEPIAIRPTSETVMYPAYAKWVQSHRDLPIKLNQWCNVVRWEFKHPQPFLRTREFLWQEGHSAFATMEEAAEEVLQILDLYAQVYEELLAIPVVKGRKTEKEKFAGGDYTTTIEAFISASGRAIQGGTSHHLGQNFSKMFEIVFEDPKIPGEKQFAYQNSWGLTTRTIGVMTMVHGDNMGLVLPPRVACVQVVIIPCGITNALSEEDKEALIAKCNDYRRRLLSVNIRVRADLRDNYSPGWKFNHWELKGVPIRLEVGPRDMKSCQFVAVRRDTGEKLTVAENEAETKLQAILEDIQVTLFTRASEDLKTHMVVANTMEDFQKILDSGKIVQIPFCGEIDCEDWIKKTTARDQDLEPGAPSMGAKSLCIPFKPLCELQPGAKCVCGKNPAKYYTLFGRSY

T1 sequence (Q8I5R7 249-746): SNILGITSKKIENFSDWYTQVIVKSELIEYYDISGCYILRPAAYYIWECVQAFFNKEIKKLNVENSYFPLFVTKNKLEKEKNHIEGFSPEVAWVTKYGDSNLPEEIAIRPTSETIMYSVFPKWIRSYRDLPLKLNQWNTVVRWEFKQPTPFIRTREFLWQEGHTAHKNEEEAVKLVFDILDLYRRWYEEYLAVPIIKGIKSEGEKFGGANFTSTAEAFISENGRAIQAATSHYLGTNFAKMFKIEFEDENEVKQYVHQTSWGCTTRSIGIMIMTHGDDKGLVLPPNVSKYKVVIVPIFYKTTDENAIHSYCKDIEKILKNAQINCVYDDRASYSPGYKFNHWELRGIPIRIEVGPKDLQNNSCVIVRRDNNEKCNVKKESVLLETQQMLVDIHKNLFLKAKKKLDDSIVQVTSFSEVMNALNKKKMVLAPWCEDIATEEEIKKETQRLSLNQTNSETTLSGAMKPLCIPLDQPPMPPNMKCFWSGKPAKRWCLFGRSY

Structure (SMILES): NC(=O)Nc1nccnc1C(=O)NC1Cc2ccccc2C1 [compound 23]
- EC50 (P. falciparum Dd2-2D4): 12.1 µM
- dose-response signal (normalized), SI Fig 8 (PfcProRS; Log[inhibitor] (M) -5.000): 9.53E-01 and 9.58E-01 and 9.22E-01
- dose-response signal (normalized), SI Fig 8 (PfcProRS; Log[inhibitor] (M) -5.301): 9.58E-01 and 1.12E+00 and 1.10E+00
- dose-response signal (normalized), SI Fig 8 (PfcProRS; Log[inhibitor] (M) -5.601): 1.05E+00 and 1.01E+00 and 9.67E-01
- dose-response signal (normalized), SI Fig 8 (PfcProRS; Log[inhibitor] (M) -5.904): 9.75E-01 and 1.01E+00 and 9.11E-01
- dose-response signal (normalized), SI Fig 8 (PfcProRS; Log[inhibitor] (M) -6.208): 1.13E+00 and 1.21E+00 and 1.04E+00
- dose-response signal (normalized), SI Fig 8 (PfcProRS; Log[inhibitor] (M) -6.509): 1.02E+00 and 1.09E+00 and 1.04E+00
- dose-response signal (normalized), SI Fig 8 (PfcProRS; Log[inhibitor] (M) -6.796): 1.08E+00 and 1.02E+00 and 1.06E+00
- dose-response signal (normalized), SI Fig 8 (PfcProRS; Log[inhibitor] (M) -7.108): 9.85E-01 and 1.02E+00 and 9.97E-01
- dose-response signal (normalized), SI Fig 8 (PfcProRS; Log[inhibitor] (M) -7.409): 9.53E-01 and 1.06E+00 and 1.07E+00
- dose-response signal (normalized), SI Fig 8 (PfcProRS; Log[inhibitor] (M) -7.710): 9.44E-01 and 1.06E+00 and 1.08E+00
- dose-response signal (normalized), SI Fig 8 (PfcProRS; Log[inhibitor] (M) -8.000): 9.87E-01 and 9.72E-01 and 1.16E+00
- dose-response signal (normalized), SI Fig 8 (PfcProRS; Log[inhibitor] (M) -8.301): 1.10E+00 and 1.12E+00 and 1.02E+00
- dose-response signal (normalized), SI Fig 8 (PfcProRS; Log[inhibitor] (M) -8.602): 9.87E-01 and 1.09E+00 and 1.12E+00
- dose-response signal (normalized), SI Fig 8 (PfcProRS; Log[inhibitor] (M) -9.000): 1.08E+00 and 9.51E-01 and 1.17E+00
- dose-response signal (normalized), SI Fig 8 (PfcProRS; Log[inhibitor] (M) -9.301): 9.82E-01 and 1.20E+00 and 1.04E+00
- IC50 (HsProRS): > 10 µM
- HsProRS % signal at 10 μM, + 100 μM proline (HsProRS; + 100 μM proline, 10 μM): 78.4%
- normalized TR-FRET ligand displacement signal, dose-response replicates (SI Fig 6) (HsProRS; Log[inhibitor] (M) -5.000): 9.23E-01 and 9.68E-01 and 8.88E-01
- TR-FRET dose-response, normalized signal (SI Fig 11) (HsProRS; Log[inhibitor] (M) -5.000): 8.87E-01 and 8.66E-01 and 9.17E-01
- normalized TR-FRET ligand displacement signal, dose-response replicates (SI Fig 6) (HsProRS; Log[inhibitor] (M) -5.301): 9.33E-01 (2×) and 1.11E+00
- TR-FRET dose-response, normalized signal (SI Fig 11) (HsProRS; Log[inhibitor] (M) -5.301): 9.05E-01 and 8.98E-01 and 9.19E-01
- normalized TR-FRET ligand displacement signal, dose-response replicates (SI Fig 6) (HsProRS; Log[inhibitor] (M) -5.601): 9.64E-01 and 1.03E+00 and 9.59E-01
- TR-FRET dose-response, normalized signal (SI Fig 11) (HsProRS; Log[inhibitor] (M) -5.601): 9.98E-01 and 9.77E-01 and 1.05E+00
- normalized TR-FRET ligand displacement signal, dose-response replicates (SI Fig 6) (HsProRS; Log[inhibitor] (M) -5.904): 1.09E+00 and 1.01E+00 and 9.81E-01
- TR-FRET dose-response, normalized signal (SI Fig 11) (HsProRS; Log[inhibitor] (M) -5.904): 1.00E+00 and 9.89E-01 and 1.01E+00
- normalized TR-FRET ligand displacement signal, dose-response replicates (SI Fig 6) (HsProRS; Log[inhibitor] (M) -6.208): 9.87E-01 and 1.09E+00 and 1.03E+00
- TR-FRET dose-response, normalized signal (SI Fig 11) (HsProRS; Log[inhibitor] (M) -6.208): 9.53E-01 and 1.02E+00 and 9.38E-01
- normalized TR-FRET ligand displacement signal, dose-response replicates (SI Fig 6) (HsProRS; Log[inhibitor] (M) -6.509): 9.55E-01 and 1.02E+00 and 8.65E-01
- TR-FRET dose-response, normalized signal (SI Fig 11) (HsProRS; Log[inhibitor] (M) -6.509): 1.01E+00 and 1.02E+00 and 9.66E-01
- normalized TR-FRET ligand displacement signal, dose-response replicates (SI Fig 6) (HsProRS; Log[inhibitor] (M) -6.796): 1.06E+00 and 9.70E-01 and 9.00E-01
- TR-FRET dose-response, normalized signal (SI Fig 11) (HsProRS; Log[inhibitor] (M) -6.796): 1.06E+00 and 1.02E+00 and 1.01E+00
- normalized TR-FRET ligand displacement signal, dose-response replicates (SI Fig 6) (HsProRS; Log[inhibitor] (M) -7.108): 9.62E-01 and 9.53E-01 and 1.03E+00
- TR-FRET dose-response, normalized signal (SI Fig 11) (HsProRS; Log[inhibitor] (M) -7.108): 9.79E-01 and 1.00E+00 and 1.02E+00
- normalized TR-FRET ligand displacement signal, dose-response replicates (SI Fig 6) (HsProRS; Log[inhibitor] (M) -7.409): 9.73E-01 and 9.58E-01 and 1.07E+00
- TR-FRET dose-response, normalized signal (SI Fig 11) (HsProRS; Log[inhibitor] (M) -7.409): 1.02E+00 (2×) and 1.04E+00
- normalized TR-FRET ligand displacement signal, dose-response replicates (SI Fig 6) (HsProRS; Log[inhibitor] (M) -7.710): 1.04E+00 and 9.48E-01 and 1.10E+00
- TR-FRET dose-response, normalized signal (SI Fig 11) (HsProRS; Log[inhibitor] (M) -7.710): 1.01E+00 and 1.04E+00 and 9.76E-01
- normalized TR-FRET ligand displacement signal, dose-response replicates (SI Fig 6) (HsProRS; Log[inhibitor] (M) -8.000): 1.00E+00 (2×) and 1.06E+00
- TR-FRET dose-response, normalized signal (SI Fig 11) (HsProRS; Log[inhibitor] (M) -8.000): 9.60E-01 and 1.00E+00 (2×)
- normalized TR-FRET ligand displacement signal, dose-response replicates (SI Fig 6) (HsProRS; Log[inhibitor] (M) -8.301): 9.32E-01 and 1.07E+00 and 9.64E-01
- TR-FRET dose-response, normalized signal (SI Fig 11) (HsProRS; Log[inhibitor] (M) -8.301): 1.00E+00 and 9.88E-01 and 1.08E+00
- normalized TR-FRET ligand displacement signal, dose-response replicates (SI Fig 6) (HsProRS; Log[inhibitor] (M) -8.602): 1.06E+00 and 1.00E+00 and 1.07E+00
- TR-FRET dose-response, normalized signal (SI Fig 11) (HsProRS; Log[inhibitor] (M) -8.602): 1.00E+00 and 1.01E+00 and 9.76E-01
- normalized TR-FRET ligand displacement signal, dose-response replicates (SI Fig 6) (HsProRS; Log[inhibitor] (M) -9.000): 1.03E+00 (2×) and 9.79E-01
- TR-FRET dose-response, normalized signal (SI Fig 11) (HsProRS; Log[inhibitor] (M) -9.000): 1.00E+00 and 9.57E-01 and 9.73E-01
- normalized TR-FRET ligand displacement signal, dose-response replicates (SI Fig 6) (HsProRS; Log[inhibitor] (M) -9.301): 1.02E+00 (2×) and 9.65E-01
- TR-FRET dose-response, normalized signal (SI Fig 11) (HsProRS; Log[inhibitor] (M) -9.301): 9.83E-01 and 9.76E-01 and 9.75E-01
- HsProRS % signal at 10 μM (HsProRS; no added proline/ATP (-), 10 μM): 89.0%
- IC50 (HsProRS; read-out: HsProRS IC50 + 100 μM proline, + 100 μM proline): > 10 µM
